# System: PCA response
# Assay: Rat Passive Cutaneous Anaphylaxis (PCA) test, ovalbumin challenge
# Type: in vivo, Wistar rats
# Description: All of the 2-nitro indane-1,3-dione prepared in the preceding Examples were submitted for biological testing. The test system was the Rat Passive Cutaneous Anaphylaxis (PCA) test described below in (ii).
# Male Wister rats of 250- 300 g, were injected intraperitoneally with 0.5 ml of Bordatella pertussis vaccine (containing 4× 10^10 dead organism per ml) and subcutaneously with 0.5 ml of an emulsion of 100 mg. of ovalbumin in 2 ml of saline and 3 ml of incomplete Freunds' adjuvant. Rats were bled by cardiac puncture on day 18, the blood was pooled and separated and serum stored at -20° and thawed only once before use.
# 0.1 ml of each of six twofold serial dilutions of the serum in 0.9% saline were injected intradermally into separate sites on the shaved dorsal surface of 250-350 g. Wistar rats. 72 hours later the animals were challenged by i.v. injection of 0.3 ml of 1% ovalbumin mixed with 0.1 ml of a 5% solution of pontamine sky blue dye both in isotonic saline buffered with pH. 7.2 Sorenson buffer (P.B.S.). The rats were killed after 20 minutes and the diameter of the blue wheals at the antibody injection sites were measured. The starting dilution of the serum was adjusted so that there was no response, after challenge, at the site of injection of the highest dilution and a maximum response at the lowest dilution.
# Amounts of the compounds were administered to rats each amount to a test group of six animals at a specified time prior to intravenous challenge with ovalbumin.
# For those compounds having insoluble sodium salts, the salts were isolated by reaction of the free nitro compound with 2.5N sodium hydroxide and the filtered sodium washed free of alkali with water. The dried salts were then administered as a suspension in 1% methyl cellulose.
# [1] = 25 mg/kg, 0 min between dosing and challenge, suspension of Na salt in 1% methyl cellulose
# [2] = 25 mg/kg, 60 min between dosing and challenge, suspension of Na salt in 1% methyl cellulose
# [3] = 100 mg/kg, 0 min between dosing and challenge, suspension of Na salt in 1% methyl cellulose
# [4] = 100 mg/kg, 60 min between dosing and challenge, suspension of Na salt in 1% methyl cellulose
# [5] = 25 mg/kg, 0 min between dosing and challenge, solution of Na salt
# [6] = 25 mg/kg, 30 min between dosing and challenge, solution of Na salt
# [7] = 100 mg/kg, 0 min between dosing and challenge, solution of Na salt
# [8] = 100 mg/kg, 30 min between dosing and challenge, solution of Na salt
# [9] = 25 mg/kg, 60 min between dosing and challenge, solution of Na salt
# [10] = 100 mg/kg, 60 min between dosing and challenge, solution of Na salt
SMILES,% INHIBITION OF PCA RESPONSE [1],% INHIBITION OF PCA RESPONSE [2],% INHIBITION OF PCA RESPONSE [3],% INHIBITION OF PCA RESPONSE [4],% INHIBITION OF PCA RESPONSE [5],% INHIBITION OF PCA RESPONSE [6],% INHIBITION OF PCA RESPONSE [7],% INHIBITION OF PCA RESPONSE [8],further results
"COc1cccc2c1C(=O)C([N+](=O)[O-])C2=O (stereo not drawn) [4-methoxy-2-nitroindane-1,3-dione, 4-Methoxy-2-nitro indane-1,3-dione]",-2%,25%,18%,36%,,,,,
"Cc1cc(C)c2c(c1)C(=O)C([N+](=O)[O-])C2=O (stereo not drawn) [4,6-dimethyl-2-nitroindane-1,3-dione, 4,6-Dimethyl-2-nitro-indane-1,3-dione]",,,,,58%,27%,,,
"COc1cc(C)cc2c1C(=O)C([N+](=O)[O-])C2=O (stereo not drawn) [4-Methoxy-6-methyl-2-nitro indane-1,3-dione]",,,,,34%,31%,80%,24%,
"CCOc1cccc2c1C(=O)C([N+](=O)[O-])C2=O (stereo not drawn) [4-ethoxy-2-nitroindane-1,3-dione, 4-Ethoxy-2-nitro indane-1,3-dione]",,,,,13%,68%,76%,55%,
"O=C1c2cccc(Br)c2C(=O)C1[N+](=O)[O-] (stereo not drawn) [4-bromo-2-nitroindane-1,3-dione, 4-Bromo-2-nitro indane-1,3dione]",8%,24%,-4%,70%,,,,,
"O=C1c2cccc(-c3ccccc3)c2C(=O)C1[N+](=O)[O-] (stereo not drawn) [2-nitro-4-phenyl indane 1,3 indione, 2-Nitro-4-Phenyl indane-1,3-dione]",,,,,12%,,8%,,% INHIBITION OF PCA RESPONSE [9]: 22%; % INHIBITION OF PCA RESPONSE [10]: 24%
"Cc1cc2c(cc1C)C(=O)C([N+](=O)[O-])C2=O [5,6-dimethyl-2-nitroindane-1,3-dione, 5,6-Dimethyl-2-nitro-indane-1,3-dione]",92%,48%,73%,54%,,,,,
"CC(C)Oc1cccc2c1C(=O)C([N+](=O)[O-])C2=O (stereo not drawn) [4-isopropyloxy-2-nitroindane 1,3-dione, 4Isopropyloxy-2-nitro-indane-1,3-dione]",23%,,49%,,,,,,"% INHIBITION OF PCA RESPONSE (25 mg/kg, 30 min between dosing and challenge, suspension of Na salt in 1% methyl cellulose): 36%; % INHIBITION OF PCA RESPONSE (100 mg/kg, 30 min between dosing and challenge, suspension of Na salt in 1% methyl cellulose): 51%"
"CCCOc1cccc2c1C(=O)C([N+](=O)[O-])C2=O (stereo not drawn) [4-n-propyloxy 2-nitroindane 1,3-dione, 2-Nitro-4-n-Propyloxy indane-1,3-dione]",,,,,77%,37%,30%,37%,
"O=C1c2ccc3ccccc3c2C(=O)C1[N+](=O)[O-] (stereo not drawn) [2-nitrobenz(e) indane-1,3-dione, 2-Nitro benz(e)indane-1,3-dione]",16%,50%,13%,47%,,,,,
"O=C1c2cc3ccccc3cc2C(=O)C1[N+](=O)[O-] [2-nitro-benz[f] indane 1,3-dione, 2-Nitro benz[f] indane-1,3-dione]",100%,37%,100%,72%,,,,,
"Cc1ccc(C)c2c1C(=O)C([N+](=O)[O-])C2=O [4,7-dimethyl-2-nitroindane-1,3-dione, 4,7-Dimethyl-2-nitro-indane-1,3-dione]",35%,16%,46%,8%,,,,,
"CC(C)COc1cccc2c1C(=O)C([N+](=O)[O-])C2=O (stereo not drawn) [4-isobutyloxy-2-nitroindane 1,3-dione, 4-Isobutyloxy-2-nitro indane-1,3-dione]",,,,,61%,28%,78%,41%,
"CCc1cc(OC)c2c(c1)C(=O)C([N+](=O)[O-])C2=O (stereo not drawn) [6-Ethyl-4-methoxy-2-nitro indane-1,3-dione]",,,,,66%,37%,91%,32%,
"O=C1c2ccc(-c3ccccc3)cc2C(=O)C1[N+](=O)[O-] (stereo not drawn) [2-nitro-5-phenyl indane-1,3-dione, 2-Nitro-5-phenyl indane-1,3-dione]",58%,56%,82%,36%,,,,,
"CCc1cccc2c1C(=O)C([N+](=O)[O-])C2=O (stereo not drawn) [4-ethyl-2-nitroindane-1,3-dione, 4-Ethyl-2-nitro indane-1,3-dione]",-5%,23%,1%,25%,,,,,
"Cc1ccc2c(c1)C(=O)C([N+](=O)[O-])C2=O (stereo not drawn) [5-methyl-2-nitroindane-1,3-dione, 5-Methyl-2-nitroindane-1,3-dione]",,,,,66%,44%,100%,47%,
"CCCCOc1cccc2c1C(=O)C([N+](=O)[O-])C2=O (stereo not drawn) [4-n-butyloxy-2-nitroindane 1,3-dione, 4-n-Butyloxy-2-nitro indane-1,3-dione]",,,,,29%,,63%,,% INHIBITION OF PCA RESPONSE [9]: 43%; % INHIBITION OF PCA RESPONSE [10]: 50%
"COc1ccc(C)c2c1C(=O)C([N+](=O)[O-])C2=O (stereo not drawn) [4-Methoxy-7-methyl-2-nitro indane1,3-dione]",,,,,34%,62%,36%,44%,
"O=C1c2ccc(Br)cc2C(=O)C1[N+](=O)[O-] (stereo not drawn) [5-bromo-2-nitroindane-1,3-dione, 5-Bromo-2-nitro indane-1,3-dione]",,,,,46%,,30%,,% INHIBITION OF PCA RESPONSE [9]: 87%; % INHIBITION OF PCA RESPONSE [10]: 64%

# — patent publication US3988476A, “Pharmaceutical compositions and methods of treating allergic conditions utilizing 2-nitroindane-1,3-dione derivatives as the active agent” (Beecham Group Limited, priority 1972, dated 1976)
